Tested on: isolated rat adipocytes
Test: Lipogenesis assay: incorporation of 3-[3H] glucose into lipids
Assay type: cell-based
Details: 2 hours at 37°C, compared with insulin and basal (Figure 10)
Experimental: The lipogenesis assay was conducted according to Smal, et al., J.Biol.Chem. 262:11071-11079 (1987). Dissected epididymal and retroperitoneal fat pads were digested under vigorous shaking at 37°C for 30 min with collagenase (1.0 mg/ml) in Krebs-Ringer-Heps (KRH) buffer, pH 7.4, 35 mg/ml dialyzed bovine serum albumin (BSA), 0.27 mM glucose. After filtration on cheesecloth and 4 washes in KRH with 10 mg/ml BSA, the adipocytes were preincubated for 4 hours at 37°C in the same buffer.
The lipogenesis assay was performed in triplicate in 6 ml polyethylene vials by adding successively 400 µl of adipocyte suspension (80 X l0^3 cells/ml), 50 µl of KRH buffer pH 7.4 (1% BSA, 0.27 mM glucose) without hormone (basal lipogenesis) or with insulin or receptor-derived peptides at the indicated concentrations, and 50 µl D-[3-^3H]-glucose in a total volume of 0.5 ml. The vials were incubated 2 hours at 37°C under gentle shaking. […]

## insulin receptor sequence 81-91: peptide with insulin receptor sequence 81-91 (LIMITDYLLLF; UniProt P06213 81-91, looked up, fragment)
  stimulation of lipogenesis: totally inactive
Listed as insulin receptor sequence 81 to 91
  stimulation of lipogenesis: not stimulated above basal
